From ChEMBL document CHEMBL1201862, “PubChem BioAssay data set” (2004)
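1) Cells in 96-well plates. 2) Compound, 48 h, 5 concentrations. 3) Linear interpolation between surrounding doses. 4) Unreached endpoint = highest concentration. GI50 marks 50% less growth.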 Active and inactive are the calls of the source. No stated cut-off is given here; in the data, active = GI50 up to about 1.1 µM and inactive = higher.

How the values were obtained:
Assay in all cases: inhibition of tumour cell growth, NCI panel, 48 h
[1] = system: SK-MEL-2
[2] = system: SN12C
[3] = system: MDA-N
[4] = system: CAKI-1
[5] = system: NCI-H460
[6] = system: HL-60
[7] = system: OVCAR-5
[8] = system: SW-620
[9] = system: TK-10
[10] = system: MDA-MB-435
[11] = system: NCI-H23
[12] = system: RXF 393
[13] = system: HCT-15
[14] = system: NCI-H226
[15] = system: CCRF-CEM
[16] = system: SF-539
[17] = system: A498
[18] = system: NCI-H522
[19] = system: SNB-19
[20] = system: BT-549

| SMILES | GI50 [1] | GI50 [2] | GI50 [3] | GI50 [4] | GI50 [5] | GI50 [6] | GI50 [7] | GI50 [8] | GI50 [9] | GI50 [10] | GI50 [11] | GI50 [12] | GI50 [13] | GI50 [14] | GI50 [15] | GI50 [16] | GI50 [17] | GI50 [18] | GI50 [19] | GI50 [20] |
| --- | --- | --- | --- | --- | --- | --- | --- | --- | --- | --- | --- | --- | --- | --- | --- | --- | --- | --- | --- | --- |
| Cc1cc(-c2cccc3ccccc23)c(C#N)c(=S)n1C1OC(CO)C(O)C(O)C1O (configuration not stated) | > 100 µM (inactive) | 82.8 µM (inactive) | > 100 µM (inactive) | > 100 µM (inactive) | > 100 µM (inactive) | > 100 µM (inactive) | > 100 µM (inactive) | > 100 µM (inactive) | > 100 µM (inactive) | > 100 µM (inactive) | > 100 µM (inactive) | > 100 µM (inactive) | > 100 µM | 50 µM (inactive) | 71.1 µM (inactive) | > 100 µM (inactive) | > 100 µM (inactive) |  |  |  |
| COc1ccc(C=C2C(C)=NN(c3cccc(Cl)c3)C23C(Cl)C(=O)N3c2nc3ccccc3s2)cc1 (configuration not stated) | 17.4 µM (inactive) |  | 19.9 µM (inactive) | 23.2 µM (inactive) | 24 µM (inactive) | 2.05 µM (inactive) | 17.3 µM (inactive) | 5.6 µM (inactive) | 26.8 µM (inactive) | 16.5 µM (inactive) | 15 µM (inactive) | 12.7 µM (inactive) | 16.8 µM | 21.4 µM (inactive) | 3.45 µM (inactive) | 30.5 µM (inactive) | 18.5 µM (inactive) | 8.53 µM (inactive) |  |  |
| Nc1ccccc1CC(O)C(=O)O (configuration not stated) |  | > 100 µM (inactive) | > 100 µM (inactive) | > 100 µM (inactive) | > 100 µM (inactive) | > 100 µM (inactive) | > 100 µM (inactive) | > 100 µM (inactive) | > 100 µM (inactive) | > 100 µM (inactive) | > 100 µM (inactive) | > 100 µM (inactive) | > 100 µM | > 100 µM (inactive) | > 100 µM (inactive) | > 100 µM (inactive) | > 100 µM (inactive) |  | > 100 µM (inactive) |  |
| COC(=O)/C(=C(/C)c1ccco1)P(=O)(OC)OC | > 100 µM (inactive) | > 100 µM (inactive) |  | > 100 µM (inactive) |  |  | > 100 µM (inactive) | > 100 µM (inactive) | > 100 µM (inactive) | > 100 µM (inactive) | > 100 µM (inactive) | > 100 µM (inactive) | > 100 µM | > 100 µM (inactive) | > 100 µM (inactive) | > 100 µM (inactive) | > 100 µM (inactive) | > 100 µM (inactive) | > 100 µM (inactive) | > 100 µM (inactive) |
| COC(=O)C(C)(/N=C/c1ccccc1)c1ccccc1 (configuration not stated) | > 100 µM (inactive) | > 100 µM (inactive) | > 100 µM (inactive) | > 100 µM (inactive) | > 100 µM (inactive) | > 100 µM (inactive) | > 100 µM (inactive) | > 100 µM (inactive) | > 100 µM (inactive) | > 100 µM (inactive) | > 100 µM (inactive) | > 100 µM (inactive) | > 100 µM | > 100 µM (inactive) | > 100 µM (inactive) | > 100 µM (inactive) | > 100 µM (inactive) | > 100 µM (inactive) | > 100 µM (inactive) |  |
| COC(=O)c1c2c(cc3c1CC1(Cc4cc5c(cc4C1)CCCC5)C3)CCCC2 | > 100 µM (inactive) | > 100 µM (inactive) | > 100 µM (inactive) |  |  | 80.4 µM (inactive) | > 100 µM (inactive) |  | > 100 µM (inactive) | > 100 µM (inactive) | > 100 µM (inactive) | 25.8 µM (inactive) | > 100 µM |  | 12 µM (inactive) | > 100 µM (inactive) | > 100 µM (inactive) | > 100 µM (inactive) |  |  |
| Fc1ccc(-c2sc(-c3ccsc3)cc2Cc2ccsc2)cc1 |  | > 10 µM (inactive) | > 10 µM (inactive) | > 10 µM (inactive) |  | > 10 µM (inactive) |  | > 10 µM (inactive) | > 10 µM (inactive) | > 10 µM (inactive) | > 10 µM (inactive) | > 10 µM (inactive) | > 10 µM |  | > 10 µM (inactive) |  |  |  |  |  |
